# Results: US12714684B2 (ALPARIS, S.A. DE C.V., priority 2019, dated 2026)
# Assays:
# [1] = system: carrageenan (CAR)-induced inflammation; test: Carrageenan (CAR)-induced subplantar edema model, volume displacement by plethysmometer; type: in vivo, rats; settings: for Time from which an anti-inflammatory effect is shown, carrageenan model: oral 100 mg/kg; for Effect in the time course, carrageenan model: oral 100 and 320 mg/kg
# Experimental: The carrageenan (CAR)-induced subplantar edema model was used in the evaluation of the acute effect.
# (§1) Preclinical studies were performed in rats with a chronic inflammation model using complete Freund's adjuvant (CFA) given intra-articularly (AIA), as well as an acute model induced by carrageenan (CAR) given in the subplantar region.
# (§2) In these models, the inflammation induced by the complete Freund's adjuvant and carrageenan is determined by the volume displacement measured with a plethysmometer.
# [2] = system: CAR-induced thermal hyperalgesia; test: Thermal hyperalgesia induced by carrageenan; type: in vivo, rats; settings: oral 100 mg/kg
# [3] = system: Complete Freund's Adjuvant (CFA)-induced inflammation; test: Complete Freund's adjuvant (CFA)-induced inflammation model, volume displacement by plethysmometer; type: in vivo, Sprague-Dawley male rats
# Experimental: as §1, §2
# [4] = Merck Index 15th ed.; cited from earlier work
# [5] = Thermodynamic solubility study in water with 1% LSS; type: physicochemical
# Experimental: It was performed by adding 2 g of the solid phase to LSS (sodium lauryl sulfate) medium, with stirring at 37.5° C., and taking aliquots at 3, 5, 10 and 30 minutes. Aliquots were filtered and measurements were made with UV-Vis spectroscopy at 420 nm.
# We measured the solubility of the co-amorphous phases at a lower concentration of 0.05 g in 3.5 ml, for determining the effect of concentration on the aggregation phenomenon.
# [6] = oral, 100 and 320 mg/kg, 1 h before
"solubility at 30 min ([5]; water with 1% sodium lauryl sulfate (LSS), aqueous with cosolvent or surfactant or cyclodextrin, thermodynamic from solid, high concentration sample, 37.5° C., water with 1% LSS, 30 min) [µg/mL]","Solubility of curcumin alone in water ([5]; water, could not be determined)",Compound,"Time from which an anti-inflammatory effect is shown, carrageenan model [1]","Effect in the time course, carrageenan model ([1]; first two hours)","Antihyperalgesic effect, carrageenan-induced thermal hyperalgesia [2]","Effect in relation to the vehicle in the time course, CFA model ([3]; oral 100 and 320 mg/kg, between 2 and 4 hours)","Effect with respect to the vehicle in the time course, carrageenan model ([1]; oral 320 mg/kg, at 1 and 2 hours)","Effect in the time course, carrageenan model ([1]; at 6 hours)","Reversal of the inflammatory effect induced by carrageenan (AUC) [1, 6]",Solubility in solvents [4],"Effect with respect to the vehicle in the time course, CFA model ([3]; oral 100 mg/kg, at 3 and 4 hours)","Effect with respect to the vehicle in the time course, CFA model ([3]; oral 320 mg/kg, between 2 and 6 hours)","Reversal of the inflammatory effect induced by complete Freund's adjuvant (AUC) [3, 6]","Reversal of inflammation induced by carrageenan ([1]; oral, fixed dose 100 mg/kg)","Reversal of inflammation induced by complete Freund's adjuvant ([3]; oral, fixed dose 100 mg/kg)"
,,N=C(N)NCCC[C@H](N)C(=O)O [L-arginine],only in the last measurement,inclined to show a proinflammatory effect,the three treatments produce an antihyperalgesic effect,showed an inflammatory effect in relation to the vehicle,,,,,,,,,
110,almost insoluble in water,"COc1cc(/C=C/C(=O)CC(=O)/C=C/c2ccc(O)c(OC)c2)ccc1O [curcumin, (1E,6E)-1,7-bis(4-hydroxy-3-methoxyphenyl)-1,6-heptadiene-3,5-dione]",only in the last measurement,,the three treatments produce an antihyperalgesic effect,,The same phenomenon is observed,seem to reverse the inflammatory effect induced by carrageenan,unable to reverse the inflammatory effect,soluble in ethanol and in concentrated acetic acid,shows an inflammatory effect with respect to the vehicle,shows an inflammatory effect with respect to the vehicle,unable to reverse the inflammatory effect,,
,,O=C(O)Cc1ccccc1Nc1c(Cl)cccc1Cl [diclofenac],,,,,,,,,,,,exhibited an anti-inflammatory effect,exhibited an anti-inflammatory effect
